Reference: the NIST ThermoML archive (doi:10.1016/j.jct.2016.10.047)

Experiment: heat capacity at constant pressure per volume; xn = mol fraction of the nth substance listed
Conditions: 102.6 kPa, Liquid, DSC, x1 = 0.08

CCCCCCCC[n+]1ccn(C)c1.F[P-](F)(F)(F)(F)F [1-octyl-3-methylimidazolium hexafluorophosphate] + CC(C)O
Conditions	heat capacity [J/K/m3]
306.1 K	2358000
306.31 K	2360000
306.53 K	2376000
306.74 K	2371000
306.95 K	2378000
307.16 K	2393000
307.38 K	2371000
307.59 K	2387000
307.8 K	2406000
308.01 K	2407000
308.23 K	2403000
308.44 K	2417000
308.65 K	2426000
308.86 K	2437000
309.07 K	2429000
309.29 K	2462000
309.5 K	2458000
309.71 K	2492000
309.92 K	2498000
310.14 K	2474000
310.35 K	2486000
310.56 K	2543000
310.77 K	2578000
310.99 K	2348000
311.2 K	2313000
311.41 K	2300000
311.62 K	2301000
311.83 K	2289000
312.05 K	2291000
312.26 K	2283000
312.47 K	2282000
312.68 K	2283000
312.89 K	2268000
313.11 K	2279000
313.32 K	2266000
313.53 K	2277000
313.74 K	2270000
313.96 K	2249000
314.17 K	2265000
314.38 K	2249000
314.59 K	2263000
314.81 K	2253000
315.02 K	2254000
315.23 K	2257000
315.44 K	2255000
315.65 K	2262000
315.87 K	2264000
316.08 K	2265000
316.29 K	2248000
316.5 K	2255000
316.72 K	2243000
316.93 K	2245000
317.14 K	2256000
317.35 K	2241000
317.57 K	2246000
317.78 K	2253000
317.99 K	2242000
318.2 K	2249000
318.42 K	2245000
318.63 K	2234000
318.84 K	2249000
319.3 K	2241000
319.64 K	2242000
319.98 K	2241000
320.31 K	2240000
320.65 K	2241000
320.99 K	2241000
321.33 K	2240000
321.67 K	2240000
322 K	2240000
322.34 K	2241000
322.68 K	2240000
323.02 K	2240000
323.36 K	2240000
323.69 K	2240000
324.03 K	2239000
324.37 K	2239000
324.71 K	2239000
325.05 K	2240000
325.38 K	2240000
325.72 K	2238000
326.06 K	2239000
326.4 K	2239000
326.74 K	2240000
327.07 K	2239000
327.41 K	2241000
327.75 K	2240000
328.09 K	2239000
328.43 K	2240000
328.76 K	2240000
329.1 K	2240000
329.44 K	2240000
329.78 K	2240000
330.12 K	2240000
330.46 K	2241000
330.79 K	2241000
331.13 K	2237000
331.47 K	2242000
331.81 K	2239000
332.15 K	2241000
332.48 K	2241000
332.82 K	2240000
333.16 K	2239000
333.5 K	2240000
333.84 K	2241000
334.17 K	2241000
334.51 K	2241000
334.85 K	2240000
335.19 K	2243000
335.53 K	2243000
335.86 K	2242000
336.2 K	2244000
336.54 K	2243000
336.88 K	2246000
337.22 K	2247000
337.56 K	2248000
337.89 K	2251000
338.23 K	2251000
338.57 K	2254000
338.91 K	2241000
